Laboratory results published in ChEMBL document CHEMBL1201862, “PubChem BioAssay data set” (2004).
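96-well plates; 48 h exposure; 5 concentrations. Endpoints by linear interpolation between flanking doses. Not reached: highest tested concentration assigned. At the GI50, growth is halved.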 Activity calls are given as the source filed them. Cut-off read from the data, not from the text of the source: active = GI50 up to about 1.1 µM and inactive = higher.

What was measured:
Assay in all cases: NCI anticancer screen, dose series, 48 h
M19-MEL = test system: M19-MEL
DMS-273 = test system: DMS-273
SNB-78 = test system: SNB-78
HOP-18 = test system: HOP-18
XF498 = test system: XF498
LXFL 529 = test system: LXFL 529
KM-20L2 = test system: KM-20L2
DMS-114 = test system: DMS-114
RXF 631 = test system: RXF 631

SMILES	GI50 (M19-MEL)	GI50 (DMS-273)	GI50 (SNB-78)	GI50 (HOP-18)	GI50 (XF498)	GI50 (LXFL 529)	GI50 (KM-20L2)	GI50 (DMS-114)	GI50 (RXF 631)
CCN(CC)CCC(=O)N1CCc2c([nH]c3ccccc23)C1c1cccnc1 (stereo not given)	> 100 µM (inactive)	> 100 µM (inactive)	> 100 µM (inactive)	> 100 µM (inactive)	> 100 µM (inactive)	> 100 µM (inactive)	> 100 µM (inactive)	> 100 µM (inactive)	–
CN(C)c1ccc(C2CC(=O)C(C#N)=C(c3ccccc3)NN2C)cc1 (stereo not given)	–	–	50.4 µM (inactive)	96.6 µM (inactive)	4.55 µM (inactive)	8.28 µM (inactive)	–	30.3 µM (inactive)	44.7 µM (inactive)
CCn1c(C)nn2c(=O)c3ccccc3nc2c1=O	> 100 µM (inactive)	> 100 µM (inactive)	> 100 µM (inactive)	> 100 µM (inactive)	> 100 µM (inactive)	> 100 µM (inactive)	> 100 µM (inactive)	> 100 µM (inactive)	–
N#Cc1ccccc1NC(=O)/C(=N\Nc1ccc([N+](=O)[O-])cc1)C1C(=O)NC(=O)NC1=O	> 100 µM (inactive)	–	> 100 µM (inactive)	–	–	> 100 µM (inactive)	> 100 µM (inactive)	> 100 µM (inactive)	–
C=C(CN(C)C)C(=O)c1ccccc1C	23.4 µM (inactive)	24.5 µM (inactive)	> 100 µM (inactive)	22.9 µM (inactive)	> 50.9 µM (inactive)	15.7 µM (inactive)	> 67.1 µM (inactive)	21.2 µM (inactive)	> 100 µM (inactive)
COc1ccc(/C=C(\C(C)=O)C(=O)Nc2ccccc2)cc1	> 100 µM (inactive)	–	> 100 µM (inactive)	> 100 µM (inactive)	–	> 100 µM (inactive)	–	> 100 µM (inactive)	–
CC[C@]1(O)C(=O)OCc2c1cc1n(c2=O)Cc2cc3c(N)cccc3nc2-1	> 100 µM (inactive)	> 100 µM (inactive)	–	> 100 µM (inactive)	> 100 µM (inactive)	> 100 µM (inactive)	> 100 µM (inactive)	> 100 µM (inactive)	> 100 µM (inactive)
CC1=NN(c2ccccc2)C(=O)C1/N=N/c1ccc(Br)cc1C (stereo not given)	> 100 µM (inactive)	> 100 µM (inactive)	79.6 µM (inactive)	3.62 µM (inactive)	–	> 100 µM (inactive)	0.634 µM (active)	> 100 µM (inactive)	32.4 µM (inactive)
COc1ccc(NC(=O)C(=O)c2c(O)c3ccc(O)cc3oc2=O)c([N+](=O)[O-])c1	> 100 µM (inactive)	> 100 µM (inactive)	–	–	–	> 100 µM (inactive)	> 100 µM (inactive)	> 100 µM (inactive)	> 100 µM (inactive)
O=C(N/C=C1\C(=O)Oc2ccccc2C1=O)Nc1ccccc1	55.8 µM (inactive)	> 100 µM (inactive)	30.1 µM (inactive)	27.5 µM (inactive)	74.3 µM (inactive)	81.1 µM (inactive)	> 100 µM (inactive)	44.9 µM (inactive)	–
O=C(C(=O)n1ncc(Cl)c(Cl)c1=O)n1ncc(Cl)c(Cl)c1=O	20.4 µM (inactive)	17.9 µM (inactive)	28.6 µM (inactive)	31.8 µM (inactive)	26.2 µM (inactive)	14.6 µM (inactive)	29.6 µM (inactive)	27.4 µM (inactive)	38 µM (inactive)
CCN(CC)c1ccc(/N=N/c2ccc(-c3nc4ccc[n+](C)c4o3)cc2)cc1	4.98 µM (inactive)	10.5 µM (inactive)	11.4 µM (inactive)	23.7 µM (inactive)	11.3 µM (inactive)	3.81 µM (inactive)	13 µM (inactive)	3.7 µM (inactive)	12.7 µM (inactive)
CC1(C(=O)Nc2ccc3cc4ccccc4cc3c2)CC2(C)CC(C)(C1)C(O)NC2=O (stereo not given)	> 100 µM (inactive)	> 100 µM (inactive)	> 100 µM (inactive)	93.5 µM (inactive)	> 100 µM (inactive)	> 100 µM (inactive)	85.3 µM (inactive)	92 µM (inactive)	–
Cc1ccc([S+](c2ccccc2)c2cc(C)ccc2C)cc1.O=C(OC(C(=O)[O-])C(OC(=O)c1ccccc1)C(=O)O)c1ccccc1 (stereo not given)	5.41 µM (inactive)	1.89 µM (inactive)	17.7 µM (inactive)	12.3 µM (inactive)	3.75 µM (inactive)	–	7.73 µM (inactive)	–	–
OC(C1CO1)C(O)C1CO1 (stereo not given)	74.8 µM (inactive)	8.81 µM (inactive)	85.9 µM (inactive)	145 µM (inactive)	37.2 µM (inactive)	–	140 µM (inactive)	35.6 µM (inactive)	–
O=C(Nc1c(Cl)cc([N+](=O)[O-])cc1Cl)C(=O)C(C(=O)c1ccncc1)C1OC(=O)c2ccccc21 (stereo not given)	> 100 µM (inactive)	> 100 µM (inactive)	> 100 µM (inactive)	> 100 µM (inactive)	> 100 µM (inactive)	> 100 µM (inactive)	> 100 µM (inactive)	> 100 µM (inactive)	> 100 µM (inactive)
Cc1cc2c(cc1C)[n+]([O-])c(C(=O)CC(=O)C(=O)Nc1ccccc1C(C)C)c(C)[n+]2[O-]	> 100 µM (inactive)	> 100 µM (inactive)	> 100 µM (inactive)	–	> 100 µM (inactive)	> 100 µM (inactive)	> 100 µM (inactive)	> 100 µM (inactive)	> 100 µM (inactive)
O=[N+]([O-])c1ccc(Cl)c(C2CC(c3cccc4ccccc34)=Nc3ccccc3S2)c1 (stereo not given)	20.2 µM (inactive)	20.4 µM (inactive)	26.5 µM (inactive)	26.9 µM (inactive)	–	18.5 µM (inactive)	29.3 µM (inactive)	20.2 µM (inactive)	> 65 µM (inactive)
O=C(/C=C1\NC(=O)c2ccccc2N1)c1ccncc1	> 100 µM (inactive)	–	> 100 µM (inactive)	–	–	–	–	> 100 µM (inactive)	–
c1ccc2c3c([nH]c2c1)C1C2CCCCN2C(c2ccncc2)N1CC3 (stereo not given)	37.2 µM (inactive)	28.6 µM (inactive)	42.8 µM (inactive)	–	23.6 µM (inactive)	38.1 µM (inactive)	24 µM (inactive)	27.2 µM (inactive)	–
CCOC(=O)Nc1ccc(S(=O)(=O)OC)cc1.CCOC(=O)Nc1ccc(S(=O)(=O)OC)cc1.NNC(=O)c1ccncc1	> 50 µM (inactive)	> 50 µM (inactive)	> 50 µM (inactive)	> 50 µM (inactive)	–	> 50 µM (inactive)	> 50 µM (inactive)	> 50 µM (inactive)	> 50 µM (inactive)
COC(=O)CC(C(C(=O)OC)C(=O)OC)N1C(=O)OCC1c1ccccc1 (stereo not given)	> 100 µM (inactive)	97.1 µM (inactive)	–	–	> 100 µM (inactive)	> 100 µM (inactive)	> 100 µM (inactive)	–	> 100 µM (inactive)
COc1ccccc1/C=C1\CCC(CCN(C)C)(C2=CCCC2)C1=O (stereo not given)	17.9 µM (inactive)	17.5 µM (inactive)	23.9 µM (inactive)	26.5 µM (inactive)	16.5 µM (inactive)	16.1 µM (inactive)	1.7 µM (inactive)	17.3 µM (inactive)	13.9 µM (inactive)
COc1ccc(C/C(=N/O)C(=O)NCCc2cc(Br)c(OCCCN(C)C)c(Br)c2)cc1Br [APLYSAMINE 2]	18.2 µM (inactive)	0.791 µM (active)	18.5 µM (inactive)	0.0528 µM (active)	12.9 µM (inactive)	16.1 µM (inactive)	18.5 µM (inactive)	18.5 µM (inactive)	–
O=C1N[C@H]2[C@H](O)[C@H](O)[C@@H](O)[C@H](O)[C@@H]2c2cc3c(c(O)c21)OCO3 [PANCRATISTATIN]	0.0388 µM (active)	0.0826 µM (active)	0.0452 µM (active)	0.0598 µM (active)	0.0237 µM (active)	0.541 µM (active)	0.0445 µM (active)	0.0412 µM (active)	0.649 µM (active)
